Data: PMC8767159, “Multiparameter Optimization of Trypanocidal Cruzain Inhibitors With In Vivo Activity and Favorable Pharmacokinetics” (Frontiers in Pharmacology, 2022)
Where two headings read alike, the source gives them in different places.

Key:
[1] = system: T. cruzi intracellular amastigotes; test: Assay against T. cruzi intracellular amastigotes (Tulahuen lacZ strain in HFF-1 fibroblasts); type: cell-based, Trypanosoma cruzi
Procedure: Biological assays against T. cruzi intracellular amastigotes were performed as reported previously using the T. cruzi Tulahuen strain, which is genetically engineered to express the E. coli β-galactosidase gene lacZ ([Buckner et al., 1996]). β-Galactosidase catalyzes a colorimetric reaction with chlorophenol red β-D-galactopyranoside (CPRG, Sigma Chemical Co., St. Louis, MO) as the substrate. The assays were conducted in 96-well tissue culture plates, and the compounds to be tested were prepared in 100% DMSO. Epimastigotes were maintained in liver infusion tryptone (LIT) enriched with 10% fetal calf serum (FCS), streptomycin, and penicillin at 28°C. Epimastigotes were converted to trypomastigotes by incubation in Grace’s insect medium (Sigma–Aldrich, St. Louis, MO) enriched with 10% FCS at 28°C. Human HFF-1 fibroblasts were seeded at 2 × 10^3/well in 80 μl of RPMI 1640 without phenol red and incubated overnight at 37°C and 5% CO2. Trypomastigotes were seeded at 1.0 × 10^4/well in 20 μl of RPMI 1640, and the plates were incubated at 37°C and 5% CO2. The next day, the synthesized compounds were added (50 μl) in 3-fold serial dilutions at concentrations ranging from 0.4 to 300 μM, and the plates were incubated at 37°C and 5% CO2. Each compound concentration was assayed in triplicate. After 120 h, 50 μl of chlorophenol red β-D-galactopyranoside (CPRG, Sigma–Aldrich) and IGEPAL CA-630 (Sigma–Aldrich) at a final concentration of 0.1% were added. The absorbance was measured at a wavelength of 570 nm in an automated microplate reader. The data were transferred to SigmaPlot 10.0 (Systat Software Inc., Erkrath, Germany) to determine the IC50 values. Benznidazole (BZ, Sigma–Aldrich) was used as a positive control, and untreated wells (100% parasite growth) were used as negative controls in all plates. All compounds were tested in three independent assays.

[2] = In vitro metabolic stability in human liver microsomes; type: in vitro ADME; conditions: human, liver microsomes
In short: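 Compounds incubated at 37°C with mouse or human liver microsomes (0.25 mg/ml) in potassium phosphate buffer with NADPH; samples quenched in ACN/MeOH at 0, 5, 10, 15, 20 and 30 min. Parent remaining by LC-MS/MS relative to 0 min; T½ = ln(2)/k, CLint = k*1000/0.25 (μL/min/mg).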

[3] = Fraction unbound by equilibrium dialysis; type: in vitro ADME; conditions: pH 7.4
In short: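 Test compounds at 1, 2, 20, 200, 2,000 and 5,000 nM in plasma, microsome suspension or buffer with 10% FCS, dialysed against 50 mM potassium phosphate pH 7.4 across a 12–14 kDa membrane, 37°C, 150 rpm, 4 h. Both sides quantified by LC-MS/MS against a standard curve; triplicates.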

[4] = Trypanosoma cruzi, HFF-1, Table 4, mean ± SD of three assays
[5] = Table 5, CLint/fu, read-out: CLint_u (L/h/kg) human (converted)
[6] = Table 5, read-out: CLint (L/h/kg) human (converted)
[7] = Table 5, fraction unbound used to correct CLint
[8] = Table 6, fraction unbound used to correct plasma clearance
[9] = Trypanosoma cruzi, HFF-1, 120 h, Table 3, 120 h, mean ± SD of three assays
[10] = Table S5, CLint/fu, read-out: CLint_u (L/h/kg) Human (converted)
[11] = Table S5, read-out: CLint (L/h/kg) Human (converted)
[12] = Table S6, fraction unbound used to correct plasma clearance

Structure (SMILES): O=C(COc1ccccc1Br)NCCc1nc2ccccc2[nH]1 [Compound 18]
- IC50 ([1]; Table 4, mean ± SD of three assays): 1.63 ± 0.57 µM
- IC50 [1, 4]: 1.6 µM
- CLint scaled at 5 µM [2, 5]: 16 L/h/kg
- CLint scaled at 5 µM [2, 6]: 9.2 L/h/kg
- fraction unbound at 4 h, 1 µM [3, 7]: 0.6
- fraction unbound at 4 h, 1 µM [3, 8]: 0.03

Structure (SMILES): O=C(COc1ccc2ccc(O)cc2c1)NCCc1nc2ccccc2[nH]1 [Compound 11]
- IC50 [1, 9]: 2.8 ± 0.6 µM
- CLint scaled at 5 µM [2, 10]: 14.2 L/h/kg
- CLint scaled at 5 µM [2, 11]: 9.48 L/h/kg
- fraction unbound at 4 h, 1 µM ([3]; Table S5, fraction unbound): 0.67
- fraction unbound at 4 h, 1 µM [3, 12]: 0.03

Structure (SMILES): O=C(COc1cccc([N+](=O)[O-])c1)NCCc1nc2ccccc2[nH]1 [Compound 8]
- IC50 [1, 9]: 3.5 ± 0.7 µM
- IC50 [1, 4]: 3.5 ± 0.7 µM
- CLint scaled at 5 µM [2, 10]: 6.58 L/h/kg
- CLint scaled at 5 µM [2, 11]: 6.58 L/h/kg
- fraction unbound at 4 h, 1 µM ([3]; Table S5, fraction unbound): 1
- fraction unbound at 4 h, 1 µM [3, 12]: 0.14

Structure (SMILES): C=CCCn1c(CCNC(=O)COc2ccccc2)nc2ccccc21 [Compound 27]
- IC50 [1, 9]: 6.9 ± 2.2 µM
- IC50 [1, 4]: 6.9 ± 2.2 µM
- CLint scaled at 5 µM [2, 10]: 70.2 L/h/kg
- CLint scaled at 5 µM [2, 11]: 60.4 L/h/kg
- fraction unbound at 4 h, 1 µM ([3]; Table S5, fraction unbound): 0.86

Structure (SMILES): O=C(COc1ccc2ccccc2c1Br)NCCc1nc2ccccc2[nH]1 [Compound 34]
- IC50 [1, 4]: 16.2 ± 3.51 µM
- CLint scaled at 5 µM [2, 5]: 540 L/h/kg
- CLint scaled at 5 µM [2, 6]: 49.9 L/h/kg
- fraction unbound at 4 h, 1 µM [3, 7]: 0.1

Structure (SMILES): NC(=O)Cn1c(CCNC(=O)COc2ccccc2)nc2ccccc21 [Compound 28]
- IC50 [1, 9]: 6.8 ± 0.9 µM
- IC50 [1, 4]: 6.8 ± 0.9 µM
- CLint scaled at 5 µM [2, 10]: < 1.53 L/h/kg
- CLint scaled at 5 µM [2, 11]: < 1.5 L/h/kg
- fraction unbound at 4 h, 1 µM ([3]; Table S5, fraction unbound): 0.98
- fraction unbound at 4 h, 1 µM [3, 12]: 0.18

Structure (SMILES): O=C(COc1ccc2cc(O)ccc2c1)NCCc1nc2ccccc2[nH]1 [Compound 10]
- IC50 [1, 9]: 14.6 ± 0.7 µM
- IC50 [1, 4]: 14.6 ± 0.7 µM
- CLint scaled at 5 µM [2, 10]: 8.15 L/h/kg
- CLint scaled at 5 µM [2, 11]: 6.66 L/h/kg
- fraction unbound at 4 h, 1 µM ([3]; Table S5, fraction unbound): 0.82
- fraction unbound at 4 h, 1 µM [3, 12]: 0.34

Structure (SMILES): O=C(COc1ccc2ccccc2c1)NCCc1nc2ccccc2[nH]1 [Compound 35]
- IC50 [1, 4]: 46.1 ± 6.21 µM
- CLint scaled at 5 µM [2, 5]: 43.9 L/h/kg
- CLint scaled at 5 µM [2, 6]: 21.1 L/h/kg
- fraction unbound at 4 h, 1 µM [3, 7]: 0.5
- fraction unbound at 4 h, 1 µM [3, 8]: 0.02

Structure (SMILES): O=C(COc1ccc(Br)cc1)NCCc1nc2ccccc2[nH]1 [Compound 33]
- IC50 [1, 4]: 6.68 ± 2.35 µM
- CLint scaled at 5 µM [2, 5]: 12.5 L/h/kg
- CLint scaled at 5 µM [2, 6]: 10.4 L/h/kg
- fraction unbound at 4 h, 1 µM [3, 7]: 0.8
- fraction unbound at 4 h, 1 µM [3, 8]: 0.16

Structure (SMILES): Cc1ccccc1OCC(=O)NCCc1nc2ccccc2o1 [Compound 37]
- IC50 [1, 4]: 2.9 ± 0.66 µM
- CLint scaled at 5 µM [2, 5]: 26.9 L/h/kg
- CLint scaled at 5 µM [2, 6]: 22.9 L/h/kg
- fraction unbound at 4 h, 1 µM [3, 7]: 0.9
- fraction unbound at 4 h, 1 µM [3, 8]: 0.05

Structure (SMILES): O=C(COc1ccccc1)NCCc1nc2ccccc2n1CCOc1ccccc1 [Compound 20]
- IC50 [1, 9]: 2.04 ± 0.6 µM
- IC50 [1, 4]: 2.04 ± 0.6 µM
- CLint scaled at 5 µM [2, 10]: 301 L/h/kg
- CLint scaled at 5 µM [2, 11]: 123 L/h/kg
- fraction unbound at 4 h, 1 µM ([3]; Table S5, fraction unbound): 0.41

Structure (SMILES): C=CCCn1c(CCNC(=O)COc2ccccc2Cl)nc2ccccc21 [Compound 38]
- IC50 [1, 4]: 11.1 ± 3.19 µM
- CLint scaled at 5 µM [2, 5]: 501 L/h/kg
- CLint scaled at 5 µM [2, 6]: 230 L/h/kg
- fraction unbound at 4 h, 1 µM [3, 7]: 0.5
- fraction unbound at 4 h, 1 µM [3, 8]: 0.01

Structure (SMILES): O=C(Cn1ccnc1[N+](=O)[O-])NCc1ccccc1 [BZ, benznidazole, reference compound]
- IC50 ([1]; Trypanosoma cruzi, HFF-1, Table 3, 120 h, mean ± SD of three assays): 1.45 ± 0.4 µM
- IC50 [1, 4]: 3 ± 0.6 µM
- CLint scaled at 5 µM [2, 5]: 1.5 L/h/kg
- CLint scaled at 5 µM [2, 6]: 1.5 L/h/kg
- CLint scaled at 5 µM [2, 10]: 1.5 L/h/kg
- CLint scaled at 5 µM [2, 11]: 1.5 L/h/kg
- fraction unbound at 4 h, 1 µM [3, 7]: 1
- fraction unbound at 4 h, 1 µM [3, 8]: 0.99
